Data on 22 compounds can be found in PubChem BioAssay (NCI).

The structures appear in SMILES notation.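 48-hour exposure; five concentrations; linearly interpolated endpoints. GI50 is the concentration that inhibits growth by half. TGI is the concentration that stops growth completely.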

What all share (assay): growth of human tumour cells (NCI), 48 h
Assay [1] relates to CAKI-1 renal.
In assay [2] the test system is EKVX NSCLC.
Assay [3] relates to HCC-2998 colon.
The test system of assay [4] is LOX IMVI melanoma.
Assay [5] concerns OVCAR-8 ovarian.
For assay [6], the system named is RXF 393 renal.
Assay [7] relates to SR leukemia.
Assay [8] relates to UACC-257 melanoma.
Assay [9] concerns CCRF-CEM leukemia.
The test system of assay [10] is COLO 205 colon.

Consider `COc1cc(C(=O)Nc2cc3c(cc2Oc2cc(C)cc(C)c2)C(=O)N(C)[C@@H](CC(=O)N(C)O)C(=O)N3)c(Br)c(OC)c1OC`, for which the GI50 was 496 nM in assay [1]; below 0.00333 µM in assay [2]; below 3.33 nM in assay [3]; below 3.33 nM in [4]; below 0.00333 µM in [5]; below 0.00333 µM in assay [6]. Further, the GI50 was below 0.00333 µM in assay [7] and below 3.33 nM in assay [8]. For the same compound, the TGI was 2.58 µM in assay [1]; 0.0201 µM in assay [2]; below 0.00333 µM in [3]; below 0.00333 µM in assay [4]; 0.0181 µM in assay [5]; 0.00609 µM in assay [6]. Further, the TGI in [7] amounted to 0.00904 µM; in [8] it was 0.00475 µM.

Consider `CCOc1cccc(/C=N/NC(=O)C(=O)Nc2cccc(C(F)(F)F)c2)c1O`, for which the GI50 in assay [1] was 528 nM; in assay [9] it was 322 nM; in assay [10] it was 2430 nM; in assay [3] it was 3280 nM; in [4], 1440 nM; in assay [5], 1.29 µM. The GI50 in [6] was 4.07 µM; in [7], 0.705 µM; in assay [8], 2570 nM. The TGI in assay [1] was 6.49 µM; in [9], 7.41 µM; in [10], above 100 µM; in [3] it was above 100 µM; in assay [4], 22.2 µM; in assay [5], above 100 µM. For the same compound, the TGI is 55.1 µM in [6], 15.4 µM in assay [7] and 25 µM in assay [8].

`CC(=O)NC(CCCCNC(=O)NCCCl)C(=O)NCc1ccccc1` (stereo unspecified): the TGI in [1], in assay [9], in assay [10], in assay [2], in assay [3] and in [5] was above 100 µM in each case. Moreover, the TGI in assay [6], in assay [7] and in [8] was above 100 µM throughout.

For `OC1(c2ccccc2)OC(C#Cc2ccccc2)(c2ccccc2)c2ccccc21` (stereo unspecified), the TGI in [1] is 13.9 µM; in assay [9], above 100 µM; in [10], 5.38 µM; in [2], 11.9 µM; in [4], 11.2 µM; in [5], 5.87 µM. The TGI was 5.58 µM in assay [6], 9.39 µM in assay [7] and 20.9 µM in [8].

In the case of `O=[N+]([O-])c1cnn(C2=CNc3ccccc3N=C2)c1`, the TGI in assay [9], in [10], in [2], in assay [3], in assay [5] and in [6] was above 100 µM throughout. The TGI in assay [7] and in [8] was above 100 µM each time.

In the case of `CCOc1cc(/C=N\Nc2nnc(C)n2N)c(C)cc1N(CCCl)CCCl`, the GI50 was 1310 nM in assay [1]; 655 nM in assay [9]; 375 nM in [10]; 1450 nM in [3]; 349 nM in assay [4]; 1.34 µM in [5]. The GI50 in assay [6] is 1.2 µM; in assay [7], 0.558 µM; in assay [8], 396 nM. Also, the TGI was 9.44 µM in [1]; 32.5 µM in [9]; 1.89 µM in assay [10]; 16 µM in assay [3]; 11.2 µM in assay [4]; above 36 µM in [5]. In addition, the TGI stood at 17.7 µM in [6], 23.5 µM in [7] and 3.6 µM in assay [8].

In the case of `CN(C)CC1CCC/C1=N\O` (stereo unspecified), the TGI in assay [1], in assay [9], in assay [10], in assay [3], in [4] and in assay [5] was above 100 µM each time. Moreover, the TGI in [6], in [7] and in assay [8] was above 100 µM each time.

Take `CN(C)/N=C(/c1nc2ccc(Cl)cc2[nH]c1=O)C(O)c1ccc(C(O)/C(=N\N(C)C)c2nc3ccc(Cl)cc3[nH]c2=O)cc1` (stereo unspecified): the TGI in assay [1], in assay [9], in assay [10], in assay [2], in [3] and in assay [5] was above 100 µM in each case. Also, the TGI in [6], in [7] and in [8] was above 100 µM in each case.

As to `O=C(O)C1CCCCC1C(=O)O.[NH-]C1CCC1.[NH2-].[Pt+2]` (stereo unspecified), the GI50 in assay [1] was 2610 nM; in [10] it was 10300 nM; in [2], 26.5 µM; in [4], 6350 nM; in [5], above 100 µM; in assay [6], 52.8 µM. For the same compound, the GI50 in assay [7] was 3.72 µM; in assay [8], 15000 nM. The TGI was 17.4 µM in [1]; 24.6 µM in assay [10]; 84.8 µM in [2]; 23.3 µM in [4]; above 100 µM in assay [5]; above 100 µM in [6]. The TGI in [7] was above 100 µM; in assay [8], 36.6 µM.

As for `CCC1=NC(CO)[C@H](c2ccccc2)O1` (stereo partly specified), the TGI in [1], in assay [10], in [2], in [4], in [5] and in assay [6] was above 100 µM in each case. The TGI in assay [7] and in assay [8] was above 100 µM each time.

In the case of `COc1ccc(-c2ccc(-c3ccc(C(=N)N)cn3)o2)cc1`, the GI50 in [1] was 6790 nM; in assay [9], 3200 nM; in [10], 1820 nM; in assay [3], 2450 nM; in assay [4], 2580 nM; in [5] it was 11.3 µM. In addition, the GI50 is 7.01 µM in assay [6], 3.11 µM in assay [7] and 2180 nM in assay [8]. Moreover, the TGI in assay [1] was 20.7 µM; in assay [9], 13.7 µM; in [10], 3.68 µM; in assay [3] it was 5.71 µM; in [4], 6.86 µM; in assay [5] it was 31.2 µM. Also, the TGI in [6] turned out to be 20 µM; in assay [7], 10.3 µM; in assay [8], 4.69 µM.

As to `CN(C)CCCNC(=O)c1ccc2c(c1)oc1cc3ccccc3c(=O)n12`, the GI50 in assay [1] is 11000 nM; in [10], 14600 nM; in [2], 17.6 µM; in [4], 9400 nM; in assay [5], 10.1 µM; in assay [6], 6.85 µM. The GI50 was 10 µM in assay [7] and 12600 nM in assay [8]. Further, the TGI was 28.6 µM in assay [1]; 32.5 µM in assay [10]; 45.7 µM in [2]; 17.9 µM in assay [4]; 24.9 µM in assay [5]; 18.2 µM in assay [6]. Moreover, the TGI in assay [7] is 46.6 µM; in [8] it was 36.8 µM.

Turning to `CCCOc1ccc2nc(NC(=O)OC)[nH]c2c1`, the GI50 was 290 nM in [1]; 273 nM in assay [9]; 135 nM in assay [10]; 0.535 µM in [2]; 232 nM in assay [3]; 778 nM in assay [4]. Besides, the GI50 in [5] is 0.485 µM; in assay [7], 0.0319 µM; in assay [8] it was above 100000 nM. Also, the TGI in assay [1] is above 100 µM; in assay [9], above 100 µM; in assay [10] it was 0.505 µM; in [2] it was above 100 µM; in [4], above 100 µM; in [5] it was above 100 µM. Besides, the TGI in assay [7] and in [8] was above 100 µM each time.

Regarding `CCOC(=O)/C=C1\CCCC12OCCO2`, the TGI in assay [1], in [9], in assay [10], in [3], in assay [5] and in assay [6] was above 100 µM each time. For the same compound, the TGI in assay [7] and in assay [8] was above 100 µM throughout.

Take `NC(=S)NNc1c([N+](=O)[O-])cnn(-c2ccccc2)c1=O`: the TGI in [1] amounted to 33.9 µM; in assay [10] it was 26.7 µM; in [3], 33 µM; in assay [4], 23.7 µM; in assay [5] it was 31.8 µM; in assay [6], 33.9 µM. Further, the TGI in assay [7] was above 100 µM; in assay [8] it was 38.8 µM.

As to `CC(=O)OCC(OC(C)=O)C(OC(C)=O)C(OC(C)=O)C(=O)CNn1c(-c2ccccc2Cl)nc2ccccc2c1=O` (stereo unspecified), the TGI in assay [1], in [9], in assay [10], in assay [2], in [4] and in assay [5] was above 100 µM in each case. The TGI in assay [6], in assay [7] and in assay [8] was above 100 µM throughout.

`COc1ccc(-c2oc3c(OC)c(OC)c(OC)c(OC)c3c(=O)c2OC)cc1OC`: the TGI in assay [1], in assay [9], in [10], in assay [2], in assay [3] and in assay [4] was above 100 µM each time. Besides, the TGI in assay [5] is 93.6 µM; in assay [7], 79.9 µM; in assay [8], above 100 µM.

Take `COC1OC(CO)C(O)C1N` (stereo unspecified): the TGI in [1], in assay [9], in assay [10], in assay [2], in [4] and in assay [5] was above 100 µM throughout. Moreover, the TGI in assay [6], in assay [7] and in assay [8] was above 100 µM throughout.

Consider `Cc1cc2c(cc1Cl)SC1=NN(C)C(N(C)C)N1S2(=O)=O` (stereo unspecified), for which the GI50 in assay [1] is above 100000 nM; in assay [9], above 100000 nM; in assay [10] it was above 100000 nM; in [2] it was above 100 µM; in [3], above 100000 nM; in assay [4] it was above 100000 nM. Also, the GI50 in assay [5] is above 100 µM; in assay [7], above 100 µM; in assay [8], above 100000 nM. Besides, the TGI in assay [1], in assay [9], in assay [10], in assay [2], in assay [3] and in assay [4] was above 100 µM throughout. For the same compound, the TGI in assay [5], in [7] and in assay [8] was above 100 µM each time.

As for `Cc1cc(C)c(C(=O)c2no[n+]([O-])c2C(=O)c2c(C)cc(C)c(Br)c2C)c(C)c1Br`, the TGI turned out to be 44.8 µM in [1]; 8.88 µM in assay [9]; 31.4 µM in assay [10]; 24.4 µM in [2]; 27.1 µM in assay [5]; 19.9 µM in [6]. The same compound gave a TGI in assay [7] of 8.42 µM.

Consider `CCOC(=O)c1s/c(=N\Nc2nc3ccccc3cc2C2OCCO2)n(Cc2ccccc2)c1C`, for which the TGI in [1], in assay [9], in assay [10], in [2], in assay [4] and in [5] was above 100 µM each time. The TGI in assay [6], in [7] and in assay [8] was above 100 µM in each case.

Take `Cc1nc2sccn2c1-c1csc(Nc2cccc(Cl)c2C)n1`: the GI50 is 3730 nM in assay [1]; 4010 nM in assay [9]; 6750 nM in assay [10]; 10400 nM in assay [3]; 6500 nM in assay [4]; 5.84 µM in assay [5]. The GI50 in assay [6] was 4.19 µM; in assay [7] it was 3.46 µM; in assay [8] it was 2520 nM. The TGI in assay [1] stood at 33.3 µM; in assay [9], 82.1 µM; in [10], 43.7 µM; in assay [3], 40.7 µM; in assay [4] it was 20.6 µM; in [5] it was 47.1 µM. Further, the TGI is 37.6 µM in assay [6], 53.1 µM in [7] and 12.5 µM in assay [8].
